{"source": "patent US11596644B2", "about": "“Method for treating post-prandial hypoglycemia” (AVOLYNT, priority 2018, dated 2023)", "key": {"[1]": {"system": "STZ-induced diabetic rats", "assay": "Oral mixed-carbohydrate tolerance test (OMCTT) in STZ-induced diabetic rats (Example 9)", "format": "in vivo, rat", "conditions": "for Plasma glucose 0 hr: before dosing; for Plasma glucose 0 hr / Plasma glucose 0.5 hr / Plasma glucose 1 hr / Plasma glucose 2 hr / Plasma glucose 3 hr / ΔAUC (0-1) / ΔAUC (0-1) (% of Control): mixed-carbohydrate load, mean ± S.E.M.; for PG elevation after glucose administration: 0.03 and 0.1 mg/kg oral, OMCTT", "procedure": "(§1) Study in diabetic rats with mixed carbohydrates. Diabetic rats, induced by intravenous injection of streptozotocin (STZ; 40 mg/kg), were used to determining plasma glucose concentration (PG) 1 hr after oral mixed-carbohydrate tolerance test (OMCTT). […] Blood was collected via the caudal artery immediately before dosing and 0.5, 1, 2, and 3 hr after dosing. The glucose concentration measurement in plasma used Glucose CII-Test Wako kit (Wako Pure Chemicals Industries, Ltd., Osaka, Japan). The variables used for efficacy assessment were the measurement values of the plasma glucose concentration and the area under the curve for plasma glucose concentration through 1 hr after loading (ΔAUC0-1 hr). The ΔAUC0-1 hr for plasma glucose was calculated based on the trapezoid method using the change of plasma glucose concentrations from pre-value (0 hr)."}, "[2]": {"system": "STZ-induced diabetic rats", "assay": "OGTT in STZ-induced diabetic rats (Example 8)", "format": "in vivo, rat", "conditions": "for Plasma glucose 0 hr: before dosing; for Plasma glucose 0 hr / Plasma glucose 0.5 hr / Plasma glucose 1 hr / Plasma glucose 2 hr / Plasma glucose 3 hr / ΔAUC (0-1) / ΔAUC (0-1) (% of Control): glucose 2 g/kg, mean ± S.E.M.; for PG elevation after glucose administration: 0.03 and 0.1 mg/kg oral, OGTT 2 g/kg", "procedure": "as §1, with “glucose.” for “mixed carbohydrates.”, “glucose” for “mixed-carbohydrate”, “(OGTT).” for “(OMCTT).”"}, "rat SGLT2": {"molecular_target": "T1, rat SGLT2 (Rattus norvegicus, UniProt P53792)", "T1 construct": "expressed in transfected cells; host or cells: COS-7", "T1 sequence (P53792 1-670)": "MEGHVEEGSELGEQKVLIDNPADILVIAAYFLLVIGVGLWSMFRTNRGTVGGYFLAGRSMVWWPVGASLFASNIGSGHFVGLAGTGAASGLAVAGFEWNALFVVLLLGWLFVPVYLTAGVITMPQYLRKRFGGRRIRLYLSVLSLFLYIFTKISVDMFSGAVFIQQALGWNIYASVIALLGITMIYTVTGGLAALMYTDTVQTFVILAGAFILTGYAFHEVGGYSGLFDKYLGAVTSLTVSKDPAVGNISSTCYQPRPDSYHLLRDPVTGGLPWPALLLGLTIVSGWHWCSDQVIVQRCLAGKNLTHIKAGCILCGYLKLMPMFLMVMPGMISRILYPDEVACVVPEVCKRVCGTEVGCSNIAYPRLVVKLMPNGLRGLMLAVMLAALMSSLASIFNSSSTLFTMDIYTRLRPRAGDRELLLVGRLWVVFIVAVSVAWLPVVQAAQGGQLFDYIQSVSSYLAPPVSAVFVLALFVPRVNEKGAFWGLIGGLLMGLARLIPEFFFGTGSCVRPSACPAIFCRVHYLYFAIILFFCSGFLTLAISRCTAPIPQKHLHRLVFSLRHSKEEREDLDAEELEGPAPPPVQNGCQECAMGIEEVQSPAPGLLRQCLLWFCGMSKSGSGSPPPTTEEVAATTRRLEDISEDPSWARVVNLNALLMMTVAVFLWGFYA", "assay": "Inhibition of radiolabeled α-MG uptake into COS-7 cells transfected with rat SGLT2 (Dixon plot)", "format": "cell-based", "conditions": "α-MG 0.3 and 1 mM", "procedure": "Selective inhibition study. Inhibition constants (Ki) of mizagliflozin for rat and human SGLT1 and SGLT2 were determined measuring concentration-dependent effects of test compound on uptake of radiolabeled methyl-α-D-glucopyranoside (α-MG) into COS-7 cells transiently transfected with cloned SGLT1 or SGLT2. Mizagliflozin was assessed at concentrations from 1 to 30 μM and 3 to 100 μM for human and rat SGLT2, respectively. It was assessed at concentrations from 30 nM to 1 μM and 10 to 30 nM for human and rat SGLT1, respectively. α-MG test concentrations were 0.3 and 1 mM. Data were analyzed and Ki determined using Dixon plots of initial transport rates. […] Inhibition constants were also determined for human SGLT1 and SGLT2."}, "[3]": {"system": "STZ-induced diabetic rats", "assay": "Mixed carbohydrate tolerance test in STZ-induced diabetic rats (Example 3)", "format": "in vivo, rat", "conditions": "mixed carbohydrate 2.0 g/kg", "procedure": "Study in diabetic rats. Mizagliflozin was tested in a rat model for diabetes and efficacy, as measured by a relative decrease in plasma glucose, was determined using a mixed carbohydrate tolerance test. Diabetic model rats were prepared by intravenous administration of streptozotocin (STZ) to induce diabetes. Seven days after STZ administration, rats were fasted for 16 hours and then given an oral loading dose of 2.0 g/kg of mixed carbohydrate (soluble starch:sucrose:lactose monohydrate=6:3:1). Mizagliflozin, or water as the vehicle control, was then administered as a single oral dose to groups of male rats (n=8/group) at doses of 0.01, 0.03, 0.1, and 0.3 mg/kg. Another control group was given vehicle and consisted of normal male Sprague Dawley rats that were not administered STZ. Voglibose was also administered as a single oral dose to male rats (n=8/group) at dose levels of 0.03, 0.1 and 0.3 mg/kg. Blood samples were collected just prior to loading with mixed carbohydrate and at 0.5, 1, 2, 3, 4, and 6 hours after loading. Plasma glucose concentrations were determined and ΔAUC0-1 h for plasma glucose was calculated."}, "[4]": {"system": "STZ-induced diabetic rats", "assay": "Oral glucose tolerance test in STZ-induced diabetic rats (Example 4)", "format": "in vivo, rat", "procedure": "Study in diabetic rats using oral glucose tolerance test. Efficacy of mizagliflozin was tested in a rat model for diabetes using an oral glucose tolerance test (OGTT). Diabetic model rats were prepared by intravenous administration of STZ to induce diabetes. Seven days after STZ administration, rats were fasted for 16 hours and then given an oral loading dose of 2.0 g/kg of glucose. Mizagliflozin, or water as the vehicle control, was then administered as a single oral dose to groups of male rats (n=8/group) at doses of 0.03, 0.1, 0.3, and 1 mg/kg. Another control group was given vehicle and consisted of normal male Sprague Dawley rats that were not administrated STZ. Voglibose was also administered as a single oral dose to male rats (n=8/group) at dose levels of 0.1, 0.3 and 1 mg/kg. Blood samples were collected just prior to loading with mixed carbohydrate and at 0.5, 1, 2, 3, 4, and 6 hours after loading. Plasma glucose concentrations were determined and ΔAUC0-1 h for plasma glucose was calculated."}, "[5]": {"system": "normal Sprague Dawley rats", "assay": "Mixed carbohydrate tolerance test in normal rats", "format": "in vivo, rat", "procedure": "Study on normal rats. The efficacy of mizagliflozin (decreasing plasma glucose levels) in normal Sprague Dawley rats was determined in a mixed carbohydrate tolerance test. Normal rats were fasted for 16 hours and then given an oral loading dose of 2.0 g/kg of mixed carbohydrate (soluble starch:sucrose:lactose monohydrate=6:3:1). Mizagliflozin (KGA-3235 sebacate), or water as the vehicle control, was then administered as a single oral dose to groups of male rats (n=8/group) at doses of 0.03, 0.1, 0.3, and 1 mg/kg. Voglibose, a glucosidase inhibitor similar to acarbose, was used as a positive control and was administered as a single oral dose to male rats (n=8/group) at dose levels of 0.1, 0.3 and 1 mg/kg. Blood samples were collected just prior to loading with mixed carbohydrate and at 0.5, 1, 2, 3, 4, and 6 hours after loading."}}, "note": "Marks after values point to notes of the source that are not given here."}
{"smiles": "Cc1cc(OCCCNCCC(N)=O)ccc1Cc1c(O[C@@H]2O[C@H](CO)[C@@H](O)[C@H](O)[C@H]2O)n[nH]c1C(C)C", "note": "[KGA-2727]", "values": [{"measurement": "Plasma glucose 0 hr", "setting": "[1]; 0.03 mg/kg oral", "result": "114 ± 7", "unit": "mg/dL"}, {"measurement": "Plasma glucose 0.5 hr", "setting": "[1]; 0.03 mg/kg oral", "result": "317 ± 28", "unit": "mg/dL"}, {"measurement": "Plasma glucose 1 hr", "setting": "[1]; 0.03 mg/kg oral", "result": "250 ± 30", "unit": "mg/dL"}, {"measurement": "Plasma glucose 2 hr", "setting": "[1]; 0.03 mg/kg oral", "result": "114 ± 5", "unit": "mg/dL"}, {"measurement": "Plasma glucose 3 hr", "setting": "[1]; 0.03 mg/kg oral", "result": "104 ± 7", "unit": "mg/dL"}, {"measurement": "ΔAUC (0-1)", "setting": "[1]; 0.03 mg/kg oral", "result": "135 ± 20", "unit": "mg·h/dL"}, {"measurement": "ΔAUC (0-1) (% of Control)", "setting": "[1]; 0.03 mg/kg oral", "result": "83 ± 12 % of Control"}, {"measurement": "Plasma glucose 0 hr", "setting": "[1]; 0.1 mg/kg oral", "result": "124 ± 8", "unit": "mg/dL"}, {"measurement": "Plasma glucose 0.5 hr", "setting": "[1]; 0.1 mg/kg oral", "result": "240 ± 17^y mg/dL"}, {"measurement": "Plasma glucose 1 hr", "setting": "[1]; 0.1 mg/kg oral", "result": "248 ± 29", "unit": "mg/dL"}, {"measurement": "Plasma glucose 2 hr", "setting": "[1]; 0.1 mg/kg oral", "result": "133 ± 4", "unit": "mg/dL"}, {"measurement": "Plasma glucose 3 hr", "setting": "[1]; 0.1 mg/kg oral", "result": "106 ± 9", "unit": "mg/dL"}, {"measurement": "ΔAUC (0-1)", "setting": "[1]; 0.1 mg/kg oral", "result": "89 ± 12", "unit": "mg·h/dL"}, {"measurement": "ΔAUC (0-1) (% of Control)", "setting": "[1]; 0.1 mg/kg oral", "result": "55 ± 7 % of Control"}, {"measurement": "PG elevation after glucose administration", "setting": "[1]", "result": "inhibited PG elevation after glucose administration dose dependently"}, {"measurement": "Plasma glucose 0 hr", "setting": "[2]; 0.03 mg/kg oral", "result": "120 ± 9", "unit": "mg/dL"}, {"measurement": "Plasma glucose 0.5 hr", "setting": "[2]; 0.03 mg/kg oral", "result": "354 ± 34", "unit": "mg/dL"}, {"measurement": "Plasma glucose 1 hr", "setting": "[2]; 0.03 mg/kg oral", "result": "342 ± 42", "unit": "mg/dL"}, {"measurement": "Plasma glucose 2 hr", "setting": "[2]; 0.03 mg/kg oral", "result": "155 ± 24", "unit": "mg/dL"}, {"measurement": "Plasma glucose 3 hr", "setting": "[2]; 0.03 mg/kg oral", "result": "85 ± 6", "unit": "mg/dL"}, {"measurement": "ΔAUC (0-1)", "setting": "[2]; 0.03 mg/kg oral", "result": "172 ± 21", "unit": "mg·h/dL"}, {"measurement": "ΔAUC (0-1) (% of Control)", "setting": "[2]; 0.03 mg/kg oral", "result": "89 ± 11 % of Control"}, {"measurement": "Plasma glucose 0 hr", "setting": "[2]; 0.1 mg/kg oral", "result": "116 ± 6 ^ mg/dL"}, {"measurement": "Plasma glucose 0.5 hr", "setting": "[2]; 0.1 mg/kg oral", "result": "233 ± 15^y mg/dL"}, {"measurement": "Plasma glucose 1 hr", "setting": "[2]; 0.1 mg/kg oral", "result": "262 ± 19^ mg/dL"}, {"measurement": "Plasma glucose 2 hr", "setting": "[2]; 0.1 mg/kg oral", "result": "194 ± 12^x mg/dL"}, {"measurement": "Plasma glucose 3 hr", "setting": "[2]; 0.1 mg/kg oral", "result": "102 ± 16^ mg/dL"}, {"measurement": "ΔAUC (0-1)", "setting": "[2]; 0.1 mg/kg oral", "result": "95 ± 14^y mg · dL^−1 · hr"}, {"measurement": "ΔAUC (0-1) (% of Control)", "setting": "[2]; 0.1 mg/kg oral", "result": "49 ± 7^y % of Control"}, {"measurement": "PG elevation after glucose administration", "setting": "[2]", "result": "inhibited PG elevation after glucose administration dose dependently"}]}
{"smiles": "CC(C)c1[nH]nc(O[C@@H]2O[C@H](CO)[C@@H](O)[C@H](O)[C@H]2O)c1Cc1ccc(CCCC(=O)NC(C)(C)C(=O)N2CCNCC2)cc1", "note": "[KGA-2891]", "values": [{"measurement": "PG elevation after glucose administration", "setting": "[1]", "result": "inhibited PG elevation after glucose administration dose dependently"}, {"measurement": "PG elevation after glucose administration", "setting": "[2]", "result": "inhibited PG elevation after glucose administration dose dependently"}]}
{"smiles": "O=C(CCc1ccc(O)cc1)c1c(O)cc(O)cc1O[C@@H]1O[C@H](CO)[C@@H](O)[C@H](O)[C@H]1O", "note": "[phlorizin, reference compound]", "values": [{"measurement": "Ki", "setting": "rat SGLT2", "result": 41.1, "unit": "nM"}]}
{"smiles": "OCC(CO)N[C@H]1C[C@](O)(CO)[C@@H](O)[C@H](O)[C@H]1O", "note": "[voglibose, reference compound]", "values": [{"measurement": "ΔAUC0-1 h of plasma glucose versus vehicle control", "setting": "[3]", "result": "significant decrease"}, {"measurement": "ΔAUC0-1 h relative to control group", "setting": "[4]; OGTT, maximum dose 1 mg/kg", "result": "not half or less than half that in the control group"}, {"measurement": "ΔAUC0-1 h of plasma glucose versus vehicle control", "setting": "[4]; glucose 2.0 g/kg", "result": "significant decrease"}, {"measurement": "ED50", "setting": "[5]; Rattus norvegicus, read-out: ED50 calculated from mean ΔAUC0-1 h (% of control), mixed carbohydrate 2.0 g/kg, single oral dose", "result": 0.32, "unit": "mg/kg"}, {"measurement": "ΔAUC0-1 h of plasma glucose versus vehicle control", "setting": "[5]; mixed carbohydrate 2.0 g/kg", "result": "significant decrease"}]}
